Series [1] has as its system MDR ETEC strain (clinical isolate). As to the kind of experiment: Resistance of the MDR ETEC strain to conventional antibiotics. Type of series: cell-based, Escherichia coli. As to conditions: method not given. As for the experimental part: (§1) The MDR ETEC strain used in this study was a clinical isolate kindly provided by our co-author, Dr. Hui-Wen Chang from Department of Veterinary Medicine and Graduate Institute of Molecular and Comparative Pathobiology, School of Veterinary Medicine, National Taiwan University. […] Glycerol stocks (20%, v/v) were maintained at −86 °C for long-term storage.

The nature of series [2]: Hemolytic activity, minimal hemolysis concentration (MHC). Type of series: cell-based. As to conditions: method not described.
In series [3] the test system is MDR ETEC (multidrug-resistant enterotoxigenic Escherichia coli). As to conditions: MDR ETEC clinical isolate; 96-well microtiter plates, 10^4 CFU/mL inoculum, 48 h at 37 °C, absorbance 600 nm; lowest concentration that completely inhibits visible growth. How it is done: as §1
Cultures were examined for growth after 48 h incubation at 37 °C, and the absorbance at 600 nm was measured.

Series [4] concerns intestinal porcine epithelial cell line-1 (IPEC-1). Nature of the series: Cell viability (MTT) assay, IPEC-1. As to conditions: IPEC-1, 24 h exposure. The series is classed as cell-based. As for the experimental part:
(§2) The IPEC-1 and IPEC-J2 cell lines were kindly provided by Dr. Je-Ruei Liu from Institute of Biotechnology and Department of Animal Science and Technology, National Taiwan University. The culture conditions and protocols were according to Koh et al. with slight modifications. Both IPEC-1 and IPEC-J2 cells were seeded on 9-cm cell culture dishes and were cultured and maintained in Dulbecco’s modified Eagle medium (DMEM)/nutrient mixture F-12 (GeneDireX, Taipei, Taiwan) supplemented with 10% fetal bovine serum (FBS; Hyclone, Cytiva, Washington DC, USA). The cultures were maintained in a humidified incubator in an atmosphere of 5% CO2 at 37 °C. After 4 to 5 days of culturing, both cell lines became confluent. Cell monolayers were washed with 3–5 mL Dulbecco’s phosphate buffered saline (DPBS, Amresco, Solon, OH, USA) and trypsinized with 1× trypsin-EDTA. The detached cells were pelleted at 200× g for 5 min, re-suspended in antibiotic-free medium, and used for subsequent adherence assays. […]
(§3) The viability of both IPEC-1 and IPEC-J2 cells after treated with AMP Q4-15a-1 was evaluated using 3-(4,5-dimethylthiazol-2-yl)-2,5-diphenyltetrazolium bromide (MTT, Amresco, Solon, OH, USA) assays performed in triplicate in three independent experiments. […] Absorbance at 570 nm of the maximum was detected by a multimode microplate reader SpectraMax M2 (Molecular Devices, San Jose, CA, USA). […]

Series [5] relates to intestinal porcine epithelial cell line-J2 (IPEC-J2). Nature of the series: Cell viability (MTT) assay, IPEC-J2. Type of series: cell-based. The note with it: IPEC-J2, 24 h exposure. As for the experimental part: as §2, §3
Series [6] relates to Acinetobacter baumannii biofilms. As to conditions: 32 and 64 μg/mL; cited from earlier work. The text has this:
Biofilm is a microbial community that adheres to the surface of various substances and encapsulates themselves in an autologous extracellular matrix. It is a critical issue to manage biofilms in clinical treatment. The matrix of the biofilm plays an important role in the mechanism of resistance to antibiotics, which constitutes a barrier to delay or prevent the interaction of antibiotics with microbial cells, depending on the extracellular polymeric substances and the charge of antimicrobial agents. The latter can be isolated or repelled, thereby reducing its effect on biofilms [[36],[3 ...

Ends that are not written are not given here.

Consider 32 molecules from paper PMC8070514, “Antibacterial and Antibiofilm Activities of Novel Antimicrobial Peptides against Multidrug-Resistant Enterotoxigenic Escherichia Coli” (International Journal of Molecular Sciences, 2021).

For `CC1(C)S[C@@H]2[C@H](NC(=O)[C@H](N)c3ccccc3)C(=O)N2[C@H]1C(=O)O` [ampicillin], in series [1], the “Susceptibility of the MDR ETEC strain” value is “resistant”. Still for that read-out and setting: to `CC1=C(C(=O)O)N2C(=O)[C@@H](NC(=O)[C@H](N)c3ccc(O)cc3)[C@H]2SC1` [cefadroxil] belongs “resistant”; to `C=CC1=C(C(=O)O)N2C(=O)[C@@H](NC(=O)/C(=N\OCC(=O)O)c3csc(N)n3)[C@H]2SC1` [cefixime], “resistant”. Same read-out and setting: to `CC(C)(O/N=C(\C(=O)N[C@@H]1C(=O)N2C(C(=O)[O-])=C(C[n+]3ccccc3)CS[C@H]12)c1csc(N)n1)C(=O)O` [ceftazidime] belongs “resistant”; to `CO/N=C(\C(=O)N[C@@H]1C(=O)N2C(C(=O)O)=C(COC(N)=O)CS[C@H]12)c1ccco1` [cefuroxime], “resistant”.

For `CC(=O)OCC1=C(C(=O)O)N2C(=O)[C@@H](NC(=O)Cc3cccs3)[C@H]2SC1` [cephalothin], the “Susceptibility of the MDR ETEC strain” value in series [1] was “resistant”.

Turning to `O=C(N[C@H](CO)[C@H](O)c1ccc([N+](=O)[O-])cc1)C(Cl)Cl` [chloramphenicol], the “Susceptibility of the MDR ETEC strain” value in series [1] is “resistant”. With `C[C@H]1c2cccc(O)c2C(=O)C2=C(O)[C@]3(O)C(=O)C(C(N)=O)=C(O)[C@@H](N(C)C)[C@@H]3[C@@H](O)[C@@H]21` [doxycycline], in series [1], the “Susceptibility of the MDR ETEC strain” value is “resistant”.

Take `CCN1CCN(c2cc3c(cc2F)c(=O)c(C(=O)O)cn3C2CC2)CC1` [enrofloxacin]: the “Susceptibility of the MDR ETEC strain” value in series [1] was “resistant”. Still for that read-out and setting: to `CC1CCc2cc(F)cc3c(=O)c(C(=O)O)cn1c23` (stereo not drawn) [flumequine] belongs “resistant”.

For the molecule `CNC(C)C1CCC(N)C(OC2C(N)CC(N)C(OC3OCC(C)(O)C(NC)C3O)C2O)O1` (stereo not drawn) [gentamicin], the “Susceptibility of the MDR ETEC strain” value in series [1] is reported as “resistant”. Still for that read-out and setting: the result for `NC[C@H]1O[C@H](O[C@H]2[C@H](O)[C@@H](O[C@H]3O[C@H](CO)[C@@H](O)[C@H](N)[C@H]3O)[C@H](N)C[C@@H]2N)[C@H](O)[C@@H](O)[C@@H]1O` [kanamycin] reads “resistant”; that for `CN(C)c1ccc(O)c2c1C[C@H]1C[C@H]3[C@H](N(C)C)C(O)=C(C(N)=O)C(=O)[C@@]3(O)C(O)=C1C2=O` [minocycline], “resistant”; that for `CCn1cc(C(=O)O)c(=O)c2ccc(C)nc21` [nalidixic acid], “resistant”. The same measure, in the same setting: the result for `O=C1CN(/N=C/c2ccc([N+](=O)[O-])o2)C(=O)N1` [nitrofurantoin] reads “moderately susceptible”; that for `CCn1cc(C(=O)O)c(=O)c2cc(F)c(N3CCNCC3)cc21` [norfloxacin], “resistant”. With `CC1COc2c(N3CCN(C)CC3)c(F)cc3c(=O)c(C(=O)O)cn1c23` (stereo not drawn) [ofloxacin], the “Susceptibility of the MDR ETEC strain” value in series [1] is listed as “resistant”. The same measure, in the same setting: to `CCN1CCN(C(=O)N[C@@H](C(=O)N[C@@H]2C(=O)N3[C@@H]2SC(C)(C)[C@@H]3C(=O)O)c2ccccc2)C(=O)C1=O` [piperacillin] belongs “resistant”; to `[H]/N=C(/N)N[C@H]1[C@H](O)[C@@H](O)[C@H](O[C@@H]2O[C@@H](C)[C@](O)(C=O)[C@H]2O[C@@H]2O[C@@H](CO)[C@H](O)[C@@H](O)[C@@H]2NC)[C@@H](N/C(N)=N\[H])[C@@H]1O` [streptomycin], “resistant”; to `CN(C)[C@@H]1C(O)=C(C(N)=O)C(=O)[C@@]2(O)C(O)=C3C(=O)c4c(O)cccc4[C@@](C)(O)[C@H]3C[C@@H]12` [tetracycline], “resistant”. On the same count and under the same terms, the result for `NC[C@H]1O[C@H](O[C@H]2[C@H](O)[C@@H](O[C@H]3O[C@H](CO)[C@@H](O)[C@H](N)[C@H]3O)[C@H](N)C[C@@H]2N)[C@H](N)C[C@@H]1O` [tobramycin] reads “resistant”. For GANAAKKFATIAKKFINYLW [GW-Q4], the “MHC (minimal hemolysis concentration)” value in series [2] is 128 µg/mL. Also, the minimal inhibitory concentration (MIC) in series [3] stood at 32 µg/mL. Regarding GANAAKKFATIAKKFINYLW-NH2 [GW-Q4a], the “MHC (minimal hemolysis concentration)” value in series [2] was found to be 32 µg/mL. Moreover, the MIC in series [3] is 8 µg/mL. For KKFATIAKKFINKLW [Peptide Q4-15-1], the “MHC (minimal hemolysis concentration)” value in series [2] was determined as 256 µg/mL. In addition, the MIC in series [3] is 8 µg/mL.

Turning to KKFATIAKKFINKLW-NH2 [Peptide Q4-15a-1], the “MHC (minimal hemolysis concentration)” value in series [2] was 256 µg/mL. The “IC20 (cell viability, MTT)” value in series [4] and in series [5] was “around 100 μg/mL” in each case. The molecule also registered a minimum inhibitory concentration (MIC) in series [3] of 4 µg/mL. Take KKFATIAKKFINWLW [Peptide Q4-15-2]: the “MHC (minimal hemolysis concentration)” value in series [2] was found to be 32 µg/mL. Moreover, the MIC in series [3] was found to be 4 µg/mL. In the case of KKFATIAKKFINWLW-NH2 [Peptide Q4-15a-2], the “MHC (minimal hemolysis concentration)” value in series [2] came to 16 µg/mL. The MIC in series [3] was determined as 2 µg/mL.

Consider KKFATIAKKFINYLW [Peptide Q4-15], for which, in series [2], the “MHC (minimal hemolysis concentration)” value came out at 128 µg/mL. In series [3], the MIC was 8 µg/mL.

In the case of KKFATIAKKFINYLW-NH2 [Peptide Q4-15a], in series [2], the “MHC (minimal hemolysis concentration)” value came to 16 µg/mL. This molecule came in with an MIC in series [3] of 4 µg/mL. On to LL37, for which the “Effect on two Acinetobacter baumannii biofilms” value in series [6] is “inhibitory effect”. For penicillin, the “Susceptibility of the MDR ETEC strain” value in series [1] is reported as “resistant”.

As for polymyxin B, the “Susceptibility of the MDR ETEC strain” value in series [1] is “moderately susceptible”.

Broadly, the MIC is the smallest concentration in the dilution series that meets the test's criterion for growth inhibition.
